Measurements published in patent US10800791B2, “Triazole ACC inhibitors and uses thereof” (Gilead Apollo, LLC, priority 2015, dated 2020).
In brackets after ≈: the same amount, converted by molar mass. Like-named read-outs stand apart in the source and are kept apart here.

Tests used:
Septoria tritici (St) = assay: Growth inhibition assay of fungal pathogens, St; type: cell-based; conditions: Zymoseptoria tritici, 48 h, growth inhibition at 48 hours vs 2% DMSO control
Procedure: (§1) Compounds of the present invention were evaluated in a growth inhibition assay to determine the ability to control the growth of fungal pathogens, such as Botrtyis cinerea (Bc), Collectotrichum graminicola (Cg), Diplodia maydis (Dm), Fusarium moniliforme (Fm), Fusarium virguliforme (Fv), Phytophthora capsici (Pc), Rhizoctonia solani (Rs), and Septoria tritici (St).
(§2) Compounds to be tested were dissolved in DMSO at 2.5 mg/ml to produce compound stock solutions (“stocks”). Stocks were diluted with DMSO by a five-fold dilution in a 96-well stock plate, and two sets of final concentrations of 50, 10, and 2 ppm or 2, 0.4, and 0.08 ppm were obtained in vitro. A set of positive controls was also prepared, with various concentrations of Soraphen (2, 0.4, and 0.08 ppm), Metalaxyl (1.1, 0.22, and 0.04 ppm), and Metconazole (2, 0.4, and 0.08 ppm or 0.2, 0.04, and 0.008 ppm) after the five-fold dilutions. Negative controls on each plate included 2% DMSO, water, and a blank (media+2% DMSO).
(§3) Fungal spores were isolated from previously sub-cultured plates of Botrtyis cinerea (Bc), Collectotrichum graminicola (Cg), Diplodia maydis (Dm), Fusarium moniliforme (Fm), Fusarium virguliforme (Fv), Phytophthora capsici (Pc), and Septoria tritici (St). The isolated spores were diluted to individual concentrations with a 17% V8 liquid media. For Rhizoctonia solani (Rs) and Pythium irregulare, 1.5 mm mycelial plugs were used in place of spores and/4 Potato Dextrose Broth (PDB) was used for dilution. The spore concentrations and plug sizes were based on growth curves generated at 48 hours for each pathogen.
(§4) In a second 96-well plate, the spores or mycelial plugs, media, diluted compound solutions, and controls were combined. Once the compound was added, a true final concentration of compound in each well was measured by an OD600 reading, which adjusted for any compound precipitation that might have occurred in the well. Plate readings were repeated at both 24 and 48 hours. The blank negative control was used as a background subtraction. Additional visual ratings were performed at both 24 and 48 hours for checking on precipitation and confirming efficacy. Visual and OD600 ratings of the compounds at 48 hours were compared to the 2% DMSO negative control, and the percent of pathogen growth inhibition was determined based on those values.

C. albicans = assay: Antifungal Activity Assay (broth microtiter MIC), C. albicans; type: cell-based, Candida albicans; conditions: Candida albicans, ATCC90028, 48 h
Method in brief: (§5)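 MIC read by eye at 48 h, comparing challenged wells with the growth control. Yeasts grown overnight on Sabouraud dextrose agar at 35° C, suspended in RPMI 1640+MOPS and added at 2.5×10^3 CFU/mL final, following CLSI M27-A3.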

C. krusei = assay: Antifungal Activity Assay (broth microtiter MIC), C. krusei; type: cell-based, Candida krusei; conditions: Pichia kudriavzevii, ATCC6258, 48 h
Method in brief: as §5

[1] = system: Fusarium moniliforme (Fm); assay: Growth inhibition assay of fungal pathogens, Fm; type: cell-based; conditions: Fusarium verticillioides, 48 h, read-out: Concentration at 90% Inhibition Fm
Procedure: as §1, §2, §3, §4

[2] = system: Phytophthora capsici (Pc); assay: Growth inhibition assay of fungal pathogens, Pc; type: cell-based; conditions: 48 h
Procedure: as §1, §2, §3, §4

human (hACC2) = human (hACC2) (Homo sapiens, UniProt O00763); assay: In vitro ACC inhibition assay (ADP-Glo), hACC2; type: biochemical; conditions: 5 nM ACC2, 20 μM ATP, 20 μM acetyl-CoA
Procedure: The detailed procedure is as follows. […] 10 μL ADP glo reagent was added. […] 20 μL kinase detection reagent was added.

Diplodia maydis (Dm) = assay: Growth inhibition assay of fungal pathogens, Dm; type: cell-based; conditions: Stenocarpella maydis, 48 h, growth inhibition at 48 hours vs 2% DMSO control
Procedure: as §1, §2, §3, §4

[3] = system: Fusarium virguliforme (Fv); assay: Growth inhibition assay of fungal pathogens, Fv; type: cell-based; conditions: 48 h
Procedure: as §1, §2, §3, §4

Botrtyis cinerea (Bc) = assay: Growth inhibition assay of fungal pathogens, Bc; type: cell-based; conditions: 48 h, growth inhibition at 48 hours vs 2% DMSO control
Procedure: as §1, §2, §3, §4

Rhizoctonia solani (Rs) = assay: Growth inhibition assay of fungal pathogens, Rs; type: cell-based; conditions: 48 h
C. parapsilosis = assay: Antifungal Activity Assay (broth microtiter MIC), C. parapsilosis; type: cell-based, Candida parapsilosis; conditions: Lodderomyces parapsilosis, ATCC22019, 48 h
Method in brief: as §5

fungal (fACC2) = fungal (fACC2) (UniProt Q00955); conditions: read-out: fACC2 (in vitro ACC2 Inhibition Assay, IC50), ADP-Glo, 5 nM ACC2, 20 μM ATP, 20 μM acetyl-CoA
[4] = system: Collectotrichum graminicola (Cg); assay: Growth inhibition assay of fungal pathogens, Cg; type: cell-based; conditions: 48 h, growth inhibition at 48 hours vs 2% DMSO control
Procedure: as §1, §2, §3, §4

[5] = Septoria tritici, read-out: Concentration at 90% Inhibition St
[6] = Table 3a, ATCC 90028, 3 replicates, MIC recorded at 48 h, read-out: MIC, C. albicans ATCC 90028
[7] = Table 3b (additional results), ATCC 90028, 3 replicates, MIC recorded at 48 h, read-out: MIC, C. albicans ATCC 90028
[8] = Table 3a, ATCC 6258, 3 replicates, MIC recorded at 48 h, read-out: MIC, C. krusei ATCC 6258
[9] = Table 3b (additional results), ATCC 6258, 3 replicates, MIC recorded at 48 h, read-out: MIC, C. krusei ATCC 6258
[10] = Fusarium moniliforme, growth inhibition at 48 hours vs 2% DMSO control
[11] = growth inhibition at 48 hours vs 2% DMSO control, read-out: Concentration at 90% Inhibition Pc
[12] = Diplodia maydis, read-out: Concentration at 90% Inhibition Dm
[13] = growth inhibition at 48 hours vs 2% DMSO control, read-out: Concentration at 90% Inhibition Fv
[14] = Botrtyis cinerea, read-out: Concentration at 90% Inhibition Bc
[15] = mycelial plugs, growth inhibition at 48 hours vs 2% DMSO control, read-out: Concentration at 90% Inhibition Rs
[16] = Table 3a, ATCC 22019, 3 replicates, MIC recorded at 48 h, read-out: MIC, C. parapsilosis ATCC 22019
[17] = Table 3b (additional results), ATCC 22019, 3 replicates, MIC recorded at 48 h, read-out: MIC, C. parapsilosis ATCC 22019
[18] = Collectotrichum graminicola, read-out: Concentration at 90% Inhibition Cg

fungal (fACC2), sequence (Q00955 whole entry): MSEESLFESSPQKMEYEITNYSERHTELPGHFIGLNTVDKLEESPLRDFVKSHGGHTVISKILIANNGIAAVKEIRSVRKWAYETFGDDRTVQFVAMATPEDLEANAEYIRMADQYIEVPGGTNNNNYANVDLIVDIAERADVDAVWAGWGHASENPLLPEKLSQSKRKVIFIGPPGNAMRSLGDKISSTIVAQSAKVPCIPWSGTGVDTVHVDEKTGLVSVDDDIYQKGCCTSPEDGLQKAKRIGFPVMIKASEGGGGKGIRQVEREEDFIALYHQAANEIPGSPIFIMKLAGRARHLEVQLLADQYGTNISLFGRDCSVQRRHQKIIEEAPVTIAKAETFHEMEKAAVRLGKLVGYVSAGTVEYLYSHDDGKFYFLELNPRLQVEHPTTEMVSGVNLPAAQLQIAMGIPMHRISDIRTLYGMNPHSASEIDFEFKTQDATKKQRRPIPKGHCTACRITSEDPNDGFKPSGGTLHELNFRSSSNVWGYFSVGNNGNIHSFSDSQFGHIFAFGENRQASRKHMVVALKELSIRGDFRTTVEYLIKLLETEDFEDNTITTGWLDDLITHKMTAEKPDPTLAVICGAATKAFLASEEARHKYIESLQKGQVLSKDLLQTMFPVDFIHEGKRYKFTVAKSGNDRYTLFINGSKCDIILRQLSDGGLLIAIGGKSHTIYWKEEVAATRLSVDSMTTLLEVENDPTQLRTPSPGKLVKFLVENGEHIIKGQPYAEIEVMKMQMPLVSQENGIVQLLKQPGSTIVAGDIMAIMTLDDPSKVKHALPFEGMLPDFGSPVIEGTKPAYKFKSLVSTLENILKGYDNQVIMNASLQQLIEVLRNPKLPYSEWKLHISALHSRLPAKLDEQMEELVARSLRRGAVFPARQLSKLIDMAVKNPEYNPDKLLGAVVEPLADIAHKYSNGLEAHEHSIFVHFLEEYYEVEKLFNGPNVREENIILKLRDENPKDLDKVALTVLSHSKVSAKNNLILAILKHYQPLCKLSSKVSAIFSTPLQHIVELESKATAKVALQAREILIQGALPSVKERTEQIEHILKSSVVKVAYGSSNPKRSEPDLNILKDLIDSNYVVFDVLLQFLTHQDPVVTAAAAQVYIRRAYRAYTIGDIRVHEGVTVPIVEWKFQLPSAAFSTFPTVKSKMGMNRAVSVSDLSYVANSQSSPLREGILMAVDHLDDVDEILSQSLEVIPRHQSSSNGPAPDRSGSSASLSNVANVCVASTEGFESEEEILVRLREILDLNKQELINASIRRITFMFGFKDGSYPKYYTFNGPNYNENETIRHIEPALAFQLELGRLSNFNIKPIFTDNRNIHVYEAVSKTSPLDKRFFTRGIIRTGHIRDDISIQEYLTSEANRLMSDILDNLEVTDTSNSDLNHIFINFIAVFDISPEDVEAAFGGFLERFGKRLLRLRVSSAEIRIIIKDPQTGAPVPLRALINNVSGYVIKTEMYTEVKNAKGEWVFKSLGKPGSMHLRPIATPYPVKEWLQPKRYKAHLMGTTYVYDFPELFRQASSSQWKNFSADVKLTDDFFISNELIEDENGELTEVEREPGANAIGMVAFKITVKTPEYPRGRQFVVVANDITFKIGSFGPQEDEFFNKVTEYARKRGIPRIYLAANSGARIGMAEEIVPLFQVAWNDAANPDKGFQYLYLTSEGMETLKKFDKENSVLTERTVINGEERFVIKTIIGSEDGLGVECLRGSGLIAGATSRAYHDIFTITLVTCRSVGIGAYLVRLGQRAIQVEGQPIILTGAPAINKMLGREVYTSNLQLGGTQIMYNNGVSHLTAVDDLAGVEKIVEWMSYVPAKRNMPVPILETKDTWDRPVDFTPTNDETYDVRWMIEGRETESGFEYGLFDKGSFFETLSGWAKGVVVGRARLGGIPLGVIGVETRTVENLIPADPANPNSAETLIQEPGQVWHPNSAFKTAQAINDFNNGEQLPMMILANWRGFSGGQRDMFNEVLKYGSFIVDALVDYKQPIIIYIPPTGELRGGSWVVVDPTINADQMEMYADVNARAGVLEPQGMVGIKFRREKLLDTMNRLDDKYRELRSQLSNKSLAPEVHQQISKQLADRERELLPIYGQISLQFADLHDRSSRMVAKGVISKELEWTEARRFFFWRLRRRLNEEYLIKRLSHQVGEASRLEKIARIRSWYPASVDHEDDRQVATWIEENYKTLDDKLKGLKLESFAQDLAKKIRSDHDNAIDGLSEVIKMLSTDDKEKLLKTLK
human (hACC2), sequence (O00763 whole entry): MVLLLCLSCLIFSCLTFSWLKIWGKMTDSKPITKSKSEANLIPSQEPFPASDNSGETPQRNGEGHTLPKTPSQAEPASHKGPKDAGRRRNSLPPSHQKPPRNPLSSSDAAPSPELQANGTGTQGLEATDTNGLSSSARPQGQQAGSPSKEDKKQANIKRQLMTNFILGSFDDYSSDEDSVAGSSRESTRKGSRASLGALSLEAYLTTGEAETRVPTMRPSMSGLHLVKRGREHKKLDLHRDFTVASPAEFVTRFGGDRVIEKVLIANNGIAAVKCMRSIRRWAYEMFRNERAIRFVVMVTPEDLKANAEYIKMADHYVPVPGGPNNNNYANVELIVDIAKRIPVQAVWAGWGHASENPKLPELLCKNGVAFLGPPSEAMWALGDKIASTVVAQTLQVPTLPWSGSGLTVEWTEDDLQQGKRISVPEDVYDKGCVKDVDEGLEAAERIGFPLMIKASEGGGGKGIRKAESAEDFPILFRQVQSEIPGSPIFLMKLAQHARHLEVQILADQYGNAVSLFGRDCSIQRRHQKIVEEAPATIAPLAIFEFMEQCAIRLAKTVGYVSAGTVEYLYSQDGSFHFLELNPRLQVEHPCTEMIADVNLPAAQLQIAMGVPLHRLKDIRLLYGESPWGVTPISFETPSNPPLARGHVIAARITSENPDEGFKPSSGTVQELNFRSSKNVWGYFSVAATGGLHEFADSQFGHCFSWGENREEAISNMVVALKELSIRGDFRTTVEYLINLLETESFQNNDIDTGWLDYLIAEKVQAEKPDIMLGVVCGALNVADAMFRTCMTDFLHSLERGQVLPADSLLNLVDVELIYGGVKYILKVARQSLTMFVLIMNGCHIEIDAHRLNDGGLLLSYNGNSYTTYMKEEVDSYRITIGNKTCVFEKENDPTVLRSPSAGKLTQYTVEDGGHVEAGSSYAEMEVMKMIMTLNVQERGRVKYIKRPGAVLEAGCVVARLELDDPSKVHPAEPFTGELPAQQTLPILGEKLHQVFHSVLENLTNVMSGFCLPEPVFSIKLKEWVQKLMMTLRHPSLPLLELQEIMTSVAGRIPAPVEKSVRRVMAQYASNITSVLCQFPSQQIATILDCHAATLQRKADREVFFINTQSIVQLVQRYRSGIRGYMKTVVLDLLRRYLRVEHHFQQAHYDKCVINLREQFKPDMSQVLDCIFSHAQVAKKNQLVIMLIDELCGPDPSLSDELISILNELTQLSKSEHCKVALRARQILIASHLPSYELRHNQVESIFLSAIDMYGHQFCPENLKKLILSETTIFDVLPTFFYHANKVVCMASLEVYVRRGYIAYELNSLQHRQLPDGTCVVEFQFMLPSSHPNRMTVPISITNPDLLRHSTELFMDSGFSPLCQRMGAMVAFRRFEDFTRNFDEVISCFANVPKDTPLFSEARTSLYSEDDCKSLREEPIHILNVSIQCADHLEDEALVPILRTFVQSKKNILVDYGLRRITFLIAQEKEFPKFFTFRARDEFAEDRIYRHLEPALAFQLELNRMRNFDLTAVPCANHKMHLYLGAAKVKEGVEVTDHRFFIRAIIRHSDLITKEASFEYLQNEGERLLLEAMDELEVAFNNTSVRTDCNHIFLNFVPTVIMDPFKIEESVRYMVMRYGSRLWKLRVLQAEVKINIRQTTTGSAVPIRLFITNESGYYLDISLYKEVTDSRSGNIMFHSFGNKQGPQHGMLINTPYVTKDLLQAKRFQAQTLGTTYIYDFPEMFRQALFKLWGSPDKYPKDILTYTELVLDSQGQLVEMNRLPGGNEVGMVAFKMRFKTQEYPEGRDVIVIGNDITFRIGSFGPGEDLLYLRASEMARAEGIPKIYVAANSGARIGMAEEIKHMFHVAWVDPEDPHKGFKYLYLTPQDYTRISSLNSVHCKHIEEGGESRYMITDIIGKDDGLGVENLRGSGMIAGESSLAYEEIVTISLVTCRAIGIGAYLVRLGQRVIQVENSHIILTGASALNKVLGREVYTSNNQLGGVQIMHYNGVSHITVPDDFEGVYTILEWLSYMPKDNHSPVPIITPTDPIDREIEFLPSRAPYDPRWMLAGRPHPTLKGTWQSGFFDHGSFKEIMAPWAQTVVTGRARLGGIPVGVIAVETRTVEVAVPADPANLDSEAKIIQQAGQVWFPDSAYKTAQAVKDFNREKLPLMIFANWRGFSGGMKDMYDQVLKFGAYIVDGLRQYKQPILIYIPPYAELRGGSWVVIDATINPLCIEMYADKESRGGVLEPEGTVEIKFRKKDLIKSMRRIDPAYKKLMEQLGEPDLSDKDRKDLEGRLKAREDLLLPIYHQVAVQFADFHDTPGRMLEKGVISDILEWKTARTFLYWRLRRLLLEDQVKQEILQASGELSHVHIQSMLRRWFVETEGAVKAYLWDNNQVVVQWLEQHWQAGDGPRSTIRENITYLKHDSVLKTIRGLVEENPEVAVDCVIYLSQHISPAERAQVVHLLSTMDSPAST

SMILES	IC90 (Septoria tritici (St); [5]) [µg/mL]	MIC (C. albicans; [6]) [µg/mL]	MIC (C. albicans; [7]) [µg/mL]	MIC (C. krusei; [8]) [µg/mL]	MIC (C. krusei; [9]) [µg/mL]	IC90 [1, 10] [µg/mL]	IC90 [2, 11] [µg/mL]	IC50 (human (hACC2); Table 2a) [nM]	IC50 (human (hACC2); Table 2b, additional results) [nM]	IC90 (Diplodia maydis (Dm); [12]) [µg/mL]	IC90 [3, 13] [µg/mL]	IC90 (Botrtyis cinerea (Bc); [14]) [µg/mL]	IC90 (Rhizoctonia solani (Rs); [15]) [µg/mL]	MIC (C. parapsilosis; [16]) [µg/mL]	MIC (C. parapsilosis; [17]) [µg/mL]	IC50 (fungal (fACC2); Table 2a) [nM]	IC50 (fungal (fACC2); Table 2b, additional results) [nM]	IC90 [4, 18] [µg/mL]	also measured
CCOC(=O)C(C)(C)n1c(=O)c2c(C)c(-n3nccn3)sc2n(C[C@H](OCCO)c2cc(F)ccc2OC)c1=O [Compound I-74, Ethyl (R)-2-(1-(2-(5-fluoro-2-methoxyphenyl)-2-(2-hydroxyethoxy)ethyl)-5-methyl-2,4-dioxo-6-(2H-1,2,3-triazol-2-yl)-1,4-dihydro-thieno[2,3-d]pyrimidin-3(2H)-yl)-2-methylpropanoate]	10 (≈ 17.4 µM)	2.1 to 4 (≈ 3.65 to 6.95 µM)	2.01 to 4 (≈ 3.49 to 6.95 µM)	0.25 to 1 (≈ 0.434 to 1.74 µM)	1.01 to 2 (≈ 1.75 to 3.47 µM)	0.08 (≈ 0.139 µM)	> 50	5 to 10	5 to 10	0.4 (≈ 0.695 µM)	0.4 (≈ 0.695 µM)	0.08 (≈ 0.139 µM)	0.08 (≈ 0.139 µM)	2.1 to 4 (≈ 3.65 to 6.95 µM)	2.01 to 4 (≈ 3.49 to 6.95 µM)	1 to 5	1 to 5	0.4 (≈ 0.695 µM)	
CCc1ccc(F)cc1[C@H](Cn1c(=O)n(C(C)(C)C(=O)NC(C)C)c(=O)c2c(C)c(-n3nccn3)sc21)OCCO [Compound I-124]	2 (≈ 3.41 µM)	0.25 to 1 (≈ 0.426 to 1.7 µM)	2.01 to 4 (≈ 3.43 to 6.82 µM)	0.06 to 0.24 (≈ 0.102 to 0.409 µM)	2.01 to 4 (≈ 3.43 to 6.82 µM)	0.08 (≈ 0.136 µM)	10 (≈ 17 µM)	1 to 5	1 to 5	0.4 (≈ 0.682 µM)	0.08 (≈ 0.136 µM)	0.4 (≈ 0.682 µM)	0.08 (≈ 0.136 µM)	0.25 to 1 (≈ 0.426 to 1.7 µM)	2.01 to 4 (≈ 3.43 to 6.82 µM)	0.4 to 1	0.3 to 1	0.08 (≈ 0.136 µM)	
CCc1ccc(F)cc1[C@H](Cn1c(=O)n(C(C)(C)C(=O)NC(C)C)c(=O)c2c(C)c(-n3nccn3)sc21)OCCOC [Compound I-126]	10 (≈ 16.6 µM)	1.1 to 2 (≈ 1.83 to 3.33 µM)	> 4.01	0.25 to 1 (≈ 0.416 to 1.66 µM)	> 4.01	0.08 (≈ 0.133 µM)	> 50	5 to 10	5 to 10	2 (≈ 3.33 µM)	0.4 (≈ 0.666 µM)	0.4 (≈ 0.666 µM)	2 (≈ 3.33 µM)	1.1 to 2 (≈ 1.83 to 3.33 µM)	2.01 to 4 (≈ 3.35 to 6.66 µM)	1 to 5	1 to 5	0.4 (≈ 0.666 µM)	
COc1ccccc1[C@H](Cn1c(=O)n(C(C)(C)C(=O)NC(C)C)c(=O)c2c(C)c(-n3nccn3)sc21)OCCC#N [Compound I-136, 2-[1-[(2R)-2-(2-cyanoethoxy)-2-(2-methoxyphenyl)ethyl]-5-methyl-2,4-dioxo-6-(2H-1,2,3-triazol-2-yl)-1H,2H,3H,4H-thieno[2,3-d]pyrimidin-3-yl]-2-methyl-N-(propan-2-yl)propanamide]								5 to 10	5 to 10							1 to 5	0.3 to 1		IC90 (Septoria tritici (St); read-out: Concentration at 90% Inhibition St, Septoria tritici): 2 µg/mL (≈ 3.45 µM); MIC (C. albicans; read-out: MIC, C. albicans ATCC 90028, Table 3a, 3 replicates, MIC recorded at 48 h): 0.25 to 1 µg/mL (≈ 0.431 to 1.73 µM); MIC (C. albicans; read-out: MIC, C. albicans ATCC 90028, Table 3b (additional results), 3 replicates, MIC recorded at 48 h): 1.01 to 2 µg/mL (≈ 1.74 to 3.45 µM); MIC (C. krusei; read-out: MIC, C. krusei ATCC 6258, Table 3a, 3 replicates, MIC recorded at 48 h): 0.06 to 0.24 µg/mL (≈ 0.104 to 0.414 µM); MIC (C. krusei; read-out: MIC, C. krusei ATCC 6258, Table 3b (additional results), 3 replicates, MIC recorded at 48 h): 0.25 to 1 µg/mL (≈ 0.431 to 1.73 µM); IC90 [1]: 0.08 µg/mL (≈ 0.138 µM); IC90 ([2]; read-out: Concentration at 90% Inhibition Pc, Phytophthora capsici, growth inhibition at 48 hours vs 2% DMSO control): 2 µg/mL (≈ 3.45 µM); IC90 (Diplodia maydis (Dm); read-out: Concentration at 90% Inhibition Dm, Diplodia maydis): 0.08 µg/mL (≈ 0.138 µM); IC90 ([3]; read-out: Concentration at 90% Inhibition Fv, Fusarium virguliforme, growth inhibition at 48 hours vs 2% DMSO control): 0.4 µg/mL (≈ 0.69 µM); IC90 (Botrtyis cinerea (Bc); read-out: Concentration at 90% Inhibition Bc, Botrtyis cinerea): 0.08 µg/mL (≈ 0.138 µM); IC90 (Rhizoctonia solani (Rs); read-out: Concentration at 90% Inhibition Rs, Rhizoctonia solani, mycelial plugs, growth inhibition at 48 hours vs 2% DMSO control): 0.08 µg/mL (≈ 0.138 µM); MIC (C. parapsilosis; read-out: MIC, C. parapsilosis ATCC 22019, Table 3a, 3 replicates, MIC recorded at 48 h): 0.25 to 1 µg/mL (≈ 0.431 to 1.73 µM); MIC (C. parapsilosis; read-out: MIC, C. parapsilosis ATCC 22019, Table 3b (additional results), 3 replicates, MIC recorded at 48 h): 0.25 to 1 µg/mL (≈ 0.431 to 1.73 µM); IC90 ([4]; read-out: Concentration at 90% Inhibition Cg, Collectotrichum graminicola): 0.08 µg/mL (≈ 0.138 µM)
